Test results reported in patent US20250263644A1, “COMPOSITIONS COMPRISING YEAST CELLS AND POLYPHENOLS AND THEIR USE” (INSTITUT NATIONAL D'ETUDES SUPERIEURES AGRONOMIQUES DE …, priority 2015, published 2025).

How the values were obtained:
yeast cells [1] = experiment: Evaluation of the reversibility of polyphenol adsorption; format: binding, Saccharomyces cerevisiae; conditions: pellets re-suspended in model wine without polyphenols, 24 h; FIG. 7b
Experimental: The yeast pellets obtained by centrifugation after adsorption above were re-suspended in 2 ml of a model wine without polyphenols. Samples were stirred for 24 h and the supernatants recovered. The adsorption reversibility was evaluated through the quantity of polyphenols recovered in supernatants.

yeast cells [2] = experiment: Adsorption isotherms: polyphenols adsorbed by yeast; format: binding, Saccharomyces cerevisiae; conditions: 24 h contact in model wine, 10^8 cells/mL, A280 of supernatant; FIG. 7a
Experimental: A contact time of 24 h was chosen for adsorption experiments. A stock solution of polyphenols with a molecular weight below 620 Da was prepared by dissolving catechin powder in a model wine at a concentration of 10 g/L. A stock solution of polyphenols with a molecular weight above 620 Da was prepared by dissolving grape skin tannins with a DPm of 20 in a model wine at a concentration of 10 g/L
Dilutions of both stock solutions were performed to get a final concentration range between 0.01 and 5 g/L. All sorption experiments were carried out by mixing equal volumes of a 2×g·L^−1 polyphenol solution (x being the final desired polyphenol concentration) and of a 2·10^8 cells/mL suspension (final concentration 10^8 cells/mL). Samples (2 ml) were placed in a 2 mL tightly closed Eppendorf in order to minimize headspace and were stirred continuously (Stuart rotator SB3, 40 rpm) in absence of light and at room temperature. […] The total polyphenol concentrations in the bulk were determined by absorbency measurements at 280 nm after adequate dilution. Total encapsulated polyphenol with a molecular weight below 620 Da and total encapsulated polyphenols with a molecular weight above 620 Da were calculated from the difference in absorbency between the samples and the corresponding controls using: […]

## catechin
Yeast cells [1]
  reversibility of interactions between yeast and adsorbed polyphenols: fully reversible
Yeast cells [2]
  amounts of polyphenols adsorbed by yeast, compared with DPm 20: about 10 times lower
